{"source": "patent US11779594B2", "about": "“Compositions for the treatment of epithelial lesions” (INTERNATIONAL HEALTH SCIENCE S.R.L., priority 2019, dated 2023)", "tested_on": "COLO-680N esophagus cells", "test": "scratch wound healing of COLO-680N esophagus cell monolayer irritated with BSC medium", "type": "cell-based, human", "settings": "COLO-680N cells treated with BSC; vs placebo, P<0.05 (FIG. 5)", "experimental": "The adhesive, barrier, soothing and repairing effects of a composition of the invention was studied in different experimental models of esophageal epithelial cells (i.e. CP-A and COLO-680N) by simulating in vitro the damage induced by gastric content on the esophagus.\nTo this aim, we incubated the cell monolayer with a medium (named BSC) containing bile salts cocktail, pepsin and pH 2.5 (thus simulating the gastric juice).\nThe significant repairing effect was assessed as described in FIG. 1-5. Confluent monolayers of COLO-680N esophagus cells, cultured in a 24 well plate, were scraped with a pipette tip and, after washing twice with PBS, were incubated with BSC (irritant medium simulating the gastro-intestinal juice) or culture medium alone as a negative control. […] Wound closure (healing) was evaluated up to 24 h under a Leica DMIL inverted microscope (Leica Microsystem) and images were collected using a Canon Powershot A640 digital camera (Canon). The cellular movements, distance and cell number were used for quantitative evaluations. The images were analyzed by ImaJ software. Results were analyzed by statistical method for assessing the significance compared to both controls and single component of the invention; the differences were considered significant for p<0.05 (FIG. 5)."}
{"substance": "sodium hyaluronate [HA]", "values": [{"measurement": "quantified wound healing effect (number of cells, movements, distance covered)", "result": "do not exert wound healing effect"}]}
